Source: publication PMC7144120, “Psoralen Derivatives as Inhibitors of Mycobacterium tuberculosis Proteasome” (Molecules, 2020)

Key:
Mtb proteasome = target: T1, Mtb proteasome (Mycobacterium tuberculosis, UniProt P9WHT9); test: biochemical; assay type: biochemical; conditions: for IC50: 50 µM Suc-LLVY-AMC, 30 min preincubation, 37 °C, triplicate, read-out: IC50 against the Mtb proteasome; for Hill Coefficient: from IC50 curve, Mtb proteasome
T1 construct: made in house

ß5i of IP = conditions: cited from earlier work; for IC50: read-out: IC50 against ß5i of IP; for RA at 10 µM against ß5i of IP: residual activity of β5i in the presence of 10 μM compound; for Ki: read-out: Ki against ß5i of IP

T1 sequence (P9WHT9 whole entry, looked up): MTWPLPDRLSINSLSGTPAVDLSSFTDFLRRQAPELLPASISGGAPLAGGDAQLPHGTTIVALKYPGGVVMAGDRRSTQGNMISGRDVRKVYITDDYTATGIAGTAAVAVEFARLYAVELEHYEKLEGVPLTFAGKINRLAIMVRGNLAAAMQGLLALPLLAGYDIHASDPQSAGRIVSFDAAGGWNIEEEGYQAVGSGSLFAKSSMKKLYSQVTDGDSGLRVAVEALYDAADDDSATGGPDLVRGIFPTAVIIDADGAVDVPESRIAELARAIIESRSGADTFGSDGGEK

Compound	RA at 100 µM against Mtb (Mtb proteasome) [%]	RA at 10 µM against ß5i of IP (ß5i of IP) [%]	further results
Cc1c(CCC(=O)ON2C(=O)CCC2=O)c(=O)oc2cc3occ(C4CCCCC4)c3cc12 [Compound 12]	–	–	IC50 (Mtb proteasome): 5 ± 2 µM; Hill Coefficient (Mtb proteasome): 1.05; IC50 (ß5i of IP): 1.8 µM
Cc1cc(-c2coc3cc4oc(=O)c(CCC(=O)O)c(C)c4cc23)c(C)o1 [Compound 23]	76	100	–
Cc1c(CCC(=O)ON2C(=O)CCC2=O)c(=O)oc2cc3c(cc12)C(c1ccccc1)CO3 (racemic) [Compound 92]	95	36	–
Cc1c(NC(=O)CC#N)c(=O)oc2cc3occ(-c4ccccc4)c3cc12 [Compound 85]	93	115	–
Cc1c(CCC(=O)ON2C(=O)CCC2=O)c(=O)oc2cc3occ(-c4ccc(Br)cc4)c3cc12 [Compound 67]	96	–	IC50 (ß5i of IP): 1.9 ± 0.9 µM
Cc1c(CCC(=O)O)c(=O)oc2cc3occ(C(C)(C)C)c3cc12 [Compound 19]	95	83	–
COc1cccc(-c2coc3cc4oc(=O)c(CCC(=O)ON5C(=O)CCC5=O)c(C)c4cc23)c1 [Compound 69]	72	–	IC50 (ß5i of IP): 0.93 ± 0.57 µM
Cc1c(CC(=O)NCC#N)c(=O)oc2cc3occ(-c4ccco4)c3cc12 [Compound 64]	91	98	–
Cc1cc(-c2coc3cc4oc(=O)c(CC(=O)N(C)CC#N)c(C)c4cc23)c(C)s1 [Compound 55]	88	103	–
Cc1c(CC(=O)NCC#N)c(=O)oc2cc3occ(C(C)(C)C)c3cc12 [Compound 61]	92	91	–
Cc1coc2cc3oc(=O)c(CC(=O)O)c(C)c3cc12 [Compound 29]	61	88	–
Cc1c(CCC(=O)ON2C(=O)CCC2=O)c(=O)oc2cc3occ(-c4ccccc4)c3cc12 [Compound 66]	66	–	IC50 (ß5i of IP): 0.009 ± 0.002 µM
Cc1cc(-c2coc3cc4oc(=O)c(CC(=O)NCC#N)c(C)c4cc23)c(C)o1 [Compound 10]	–	100	IC50 (Mtb proteasome): 3 ± 2 µM; Hill Coefficient (Mtb proteasome): 4.46
COc1ccc(-c2coc3c(C)c4oc(=O)c(CCC(=O)O)c(C)c4cc23)cc1 [Compound 37]	87	87	–
Cc1c(CC(=O)ON2C(=O)CCC2=O)c(=O)oc2cc3occ(-c4ccc(Br)cc4)c3cc12 [Compound 74]	61	101	–
COc1cccc(-c2coc3c(C)c4oc(=O)c(CCC(=O)O)c(C)c4cc23)c1 [Compound 36]	87	72	–
Cc1coc2cc3oc(=O)c(CCC(=O)NCC#N)c(C)c3cc12 [Compound 47]	95	105	–
Cc1c(CCC(=O)NCC#N)c(=O)oc2cc3occ(C4CCCCC4)c3cc12 [Compound 50]	96	102	–
COc1ccc(-c2coc3cc4oc(=O)c(CC(=O)O)c(C)c4cc23)cc1 [Compound 26]	50	–	Ki (ß5i of IP): 8.2 ± 0.5 µM
Cc1c(CCC(=O)O)c(=O)oc2c(C)c3occ(-c4ccc(Br)cc4)c3cc12 [Compound 5]	–	93	IC50 (Mtb proteasome): 17 ± 3 µM; Hill Coefficient (Mtb proteasome): 0.70
Cc1c(CCC(=O)O)c(=O)oc2cc3occ(-c4ccc(C(=O)O)cc4)c3cc12 [Compound 3]	–	53	IC50 (Mtb proteasome): 31 ± 5 µM; Hill Coefficient (Mtb proteasome): 1.22
Cc1coc2cc3oc(=O)c(CCC(=O)O)c(C)c3cc12 [Compound 20]	93	94	–
Cc1c(CC(=O)ON2C(=O)CCC2=O)c(=O)oc2cc3occ(-c4ccco4)c3cc12 [Compound 77]	56	44	–
COc1cccc(-c2coc3cc4oc(=O)c(CC(=O)O)c(C)c4cc23)c1 [Compound 27]	98	–	Ki (ß5i of IP): 7 ± 0.2 µM
Cc1cc(-c2coc3cc4oc(=O)c(CCC(=O)NCC#N)c(C)c4cc23)c(C)s1 [Compound 48]	100	109	–
Cc1c(CC(=O)N(C)CC#N)c(=O)oc2cc3occ(C(C)(C)C)c3cc12 [Compound 53]	97	96	–

Compound	RA at 100 µM against Mtb (Mtb proteasome) [%]	RA at 10 µM against ß5i of IP (ß5i of IP) [%]	further results
Cc1c(CC(=O)O)c(=O)oc2cc3occ(C4CCCCC4)c3cc12 [Compound 33]	90	–	Ki (ß5i of IP): 198 ± 21 µM
Cc1c(CCC(=O)O)c(=O)oc2c(C)c3occ(-c4ccccc4)c3cc12 [Compound 35]	100	–	Ki (ß5i of IP): 43.1 ± 15 µM
Cc1c(CCC(=O)O)c(=O)oc2cc3occ(-c4ccc(Br)cc4)c3cc12 [Compound 1]	–	–	IC50 (Mtb proteasome): 39 ± 7 µM; Hill Coefficient (Mtb proteasome): 0.69; Ki (ß5i of IP): 137 µM
Cc1c(-c2nsc(=O)o2)c(=O)oc2cc3occ(-c4ccccc4)c3cc12 [Compound 88]	84	–	IC50 (ß5i of IP): 0.013 ± 0.004 µM
Cc1cc(-c2coc3cc4oc(=O)c(CC(=O)NCC#N)c(C)c4cc23)c(C)s1 [Compound 63]	95	101	–
Cc1c(CCC(=O)NCC#N)c(=O)oc2cc3occ(-c4ccc(Br)cc4)c3cc12 [Compound 46]	82	107	–
Cc1c(CCC(=O)NCC#N)c(=O)oc2cc3occ(-c4ccco4)c3cc12 [Compound 49]	100	97	–
COc1ccc(-c2coc3cc4oc(=O)c(CCC(=O)O)c(C)c4cc23)cc1 [Compound 17]	100	84	–
O=C(O)Cc1cc2cc3c(-c4ccccc4)coc3cc2oc1=O [Compound 34]	54	–	Ki (ß5i of IP): 3.8 ± 1.1 µM
Cc1c(CC(=O)O)c(=O)oc2cc3occ(C(C)(C)C)c3cc12 [Compound 28]	97	85	–
Cc1coc2cc3oc(=O)c(CC(=O)ON4C(=O)CCC4=O)c(C)c3cc12 [Compound 76]	53	101	–
Cc1cc(-c2coc3cc4oc(=O)c(CCC(=O)ON5C(=O)CCC5=O)c(C)c4cc23)c(C)s1 [Compound 72]	95	–	IC50 (ß5i of IP): 1.8 ± 0.8 µM
Cc1c(N)c(=O)oc2cc3occ(-c4ccccc4)c3cc12 [Compound 84]	100	88	–
Cc1c(Cc2nsc(=O)o2)c(=O)oc2cc3occ(-c4ccccc4)c3cc12 [Compound 89]	65	–	IC50 (ß5i of IP): 0.12 ± 0.05 µM
Cc1c(CCC(=O)O)c(=O)oc2cc3occ(C4CCCCC4)c3cc12 [Compound 24]	71	102	–
Cc1c(CC(=O)O)c(=O)oc2cc3occ(-c4ccccc4)c3cc12 [Compound 25]	96	–	Ki (ß5i of IP): 2.4 ± 0.4 µM
Cc1c(CCC(=O)O)c(=O)oc2cc3c(cc12)C(c1ccccc1)CO3 (racemic) [Compound 91]	95	94	–
Cc1cc(-c2coc3cc4oc(=O)c(CC(=O)N(C)CC#N)c(C)c4cc23)c(C)o1 [Compound 57]	100	96	–
Cc1cc(-c2coc3cc4oc(=O)c(CC(=O)O)c(C)c4cc23)c(C)s1 [Compound 30]	93	–	Ki (ß5i of IP): 36.5 ± 7.1 µM
Cc1c(CNC(=O)CC#N)c(=O)oc2cc3occ(-c4ccccc4)c3cc12 [Compound 81]	100	101	–
Cc1c(CC(=O)ON2C(=O)CCC2=O)c(=O)oc2cc3occ(C4CCCCC4)c3cc12 [Compound 78]	98	62	–
Cc1c(CCC(=O)O)c(=O)oc2c(C)c3occ(-c4ccc(C(=O)O)cc4)c3cc12 [Compound 39]	98	–	–
Cc1c(CC(=O)NCC#N)c(=O)oc2cc3occ(-c4ccc(Br)cc4)c3cc12 [Compound 60]	87	105	–
Cc1coc2cc3oc(=O)c(CC(=O)NCC#N)c(C)c3cc12 [Compound 62]	60	–	–
Cc1c(CN)c(=O)oc2cc3occ(-c4ccccc4)c3cc12 [Compound 80]	55	–	–
